Here are results for 10 molecules from patent US20250122182A1 (Isosterix, Inc., priority 2023, published 2025).

One test deals with ZR-75-1 cells. The experiment in a line: Cell Titer-Glo Luminescent Cell Viability Assay in ZR-75-1 Cells. Format: cell-based. Particulars: compounds replenished every 48 hours till day 10, CellTiter-Glo. The protocol: The CellTiter-Glo® Luminescent Cell Viability Assay is a homogeneous method employed to determine the number of metabolically active cells in culture. On day 0, ZR-75-1 cells were detached completely from the culture flasks using 0.25% trypsin-EDTA (Catalog #25200056, Gibco). ZR-75-1 cells were seeded into white opaque-96 well culture plate (Catalog #6005680, Perkin Elmer) at a density of 1500 cells per well in 200 μL of RPMI 1640 medium (Catalog #A1049101, Gibco) supplemented with 10% Fetal Bovine Serum (Catalog #16000044, Gibco) and 1× Penicillin-Streptomycin (Catalog #15140122, Gibco). The plates were incubated at 37° C. with 5% CO2 for 24 hours. On day 1, the spent media was removed from each well of the plate and 180 μL of fresh RPMI 1640 complete media was added. Test compounds were diluted in 100% DMSO followed by complete media. 20 μL of media containing compounds were added to each well so that the final DMSO concentration was 0.5%. The test compounds were tested for 10 points DRC (10 μM top concentration, 3-fold dilution). The assay plates were incubated at 37° C. with 5% CO2 for 48 hours. The test compounds and media were replenished every 48 hours till day 10.
On day 10, the CellTiter-Glo® 2.0 reagent (Catalog #G9242, Promega) was thawed and equilibrated to room temperature. Assay plates were removed from the incubator and equilibrated to room temperature for about 30 minutes. 100 μL of spent media was removed from each well and then 50 μL of CellTiter-Glo® 2.0 Reagent was added. The plates were incubated on an orbital shaker at room temperature for 10 minutes to induce cell lysis and stabilize luminescent signal. The luminescent signal was recorded using Perkin Elmer Envision multi-mode plate reader. Percent cytotoxicity induced by test compounds was determined relative to vehicle control. EC50 value for test compounds was calculated using GraphPad Prism software (four parameter-variable slope equation).
(In ATP-based viability assays light output follows the ATP content of the culture.)

Test [1] concerns the target Recombinant KAT6A/MOZ (488-778) protein (Homo sapiens (Human), UniProt Q92794). In words: KAT6A AlphaLISA Inhibition Screening Assay. Particulars: for Average Kat6A % inhibition @ 1 μM / inhibition at 1 µM: 1 μM test compound; for Average Kat6A % inhibition @ 10 μM / inhibition at 10 µM: 10 μM test compound; for inhibition at 1 µM: read-out: Average Kat6A % inhibition @ 1 μM; for inhibition at 10 µM: read-out: Average Kat6A % inhibition @ 10 μM. Format: biochemical. An outline of the steps:
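25 nM KAT6A (488-778) pre-incubated 60 or 10 min with compound (10-point, 3-fold from 10 μM), then 400 nM acetyl-CoA and 200 nM biotin-H3(1-21) peptide added for 120 min at RT in pH 8.0 Tris buffer with 330 nM TSA. Acetylation read by AlphaLISA (anti-acetyl-lysine acceptor/streptavidin donor beads); % inhibition vs vehicle.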
(Bead proximity is the source of the signal in Alpha formats.)

In the next test the target is GST-Tagged Kat6B (Homo sapiens (Human), UniProt Q8WYB5). The experiment in a line: Kat6B IC50 using GST-tagged Kat6B (radioisotope-based filtration assay). Particulars: 60 minutes preincubation with enzyme; Histone H4 peptide substrate; 1 μM Acetyl-CoA; read-out: Biochemical assay:Kat6B IC50. The protocol:
(§1) Compounds were suspended in as a stock of 10 mM in DMSO. Compounds were diluted and tested in 10-doses with 3-fold serial dilutions starting with 10 μM as the highest concentration. Compounds were preincubated in the reaction mixture with the enzyme (5 nM KAT6A, amino acids 488-778 with an N-terminal FLAG tag incorporated; 10 nM […] protein, amino acids 657-1069 with an N-terminal GST tag). This preincubation was for 60 minutes prior to the addition of substrate. […] Reactions were performed in reaction buffer 50 mM Tris-HCl, pH 8.0, 50 mM NaCl, 0.1 mM EDTA, […], 1% DMSO and the reactions initiated with the addition of Acetyl-CoA as a co-factor, with histone acetylation measured with a radiometric activity assay using a radioisotope-based filtration assay. Inhibition of acetylation was calculated using with standard curve-fitting model and IC50 determination.

The next test concerns the target FLAG-Tagged Kat6A (Homo sapiens (Human), UniProt Q92794). In words: KAT6A IC50 using FLAG-tagged Kat6A (radioisotope-based filtration assay). Particulars: 60 minutes preincubation with enzyme; Histone H3 peptide substrate; 1 μM Acetyl-CoA; read-out: Biochemical assay:Kat6A IC50. The protocol:
as §1

A value given as a limit tells only on which side of the number the result lay.

Sequence of GST-Tagged Kat6B (Q8WYB5 657-1069): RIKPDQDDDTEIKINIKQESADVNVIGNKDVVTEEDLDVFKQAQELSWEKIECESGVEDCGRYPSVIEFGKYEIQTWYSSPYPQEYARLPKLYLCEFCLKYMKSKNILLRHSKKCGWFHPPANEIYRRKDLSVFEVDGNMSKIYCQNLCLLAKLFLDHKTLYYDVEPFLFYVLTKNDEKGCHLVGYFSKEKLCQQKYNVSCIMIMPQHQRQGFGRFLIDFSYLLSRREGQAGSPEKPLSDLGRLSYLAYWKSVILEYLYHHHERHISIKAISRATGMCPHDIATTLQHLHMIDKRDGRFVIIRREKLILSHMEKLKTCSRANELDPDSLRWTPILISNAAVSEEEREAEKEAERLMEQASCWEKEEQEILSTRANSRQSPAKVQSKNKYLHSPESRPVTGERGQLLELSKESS
Sequence of Recombinant KAT6A/MOZ (488-778) protein (Q92794 488-778): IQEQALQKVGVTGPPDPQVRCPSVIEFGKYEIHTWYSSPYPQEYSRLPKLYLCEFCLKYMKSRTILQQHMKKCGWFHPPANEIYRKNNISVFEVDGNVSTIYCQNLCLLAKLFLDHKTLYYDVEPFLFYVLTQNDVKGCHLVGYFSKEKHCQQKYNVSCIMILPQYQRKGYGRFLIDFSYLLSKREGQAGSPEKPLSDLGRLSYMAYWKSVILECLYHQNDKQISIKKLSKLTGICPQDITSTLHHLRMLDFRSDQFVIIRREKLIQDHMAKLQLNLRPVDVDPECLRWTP
Sequence of FLAG-Tagged Kat6A (Q92794 488-778): as above

For `COC(=O)NCc1cnn(Cc2cc(OC)c3c(NS(=O)(=O)c4ccccc4OC)noc3c2)c1` [Syn. Ex. 7, methyl ((1-((4-methoxy-3-((2-methoxyphenyl)sulfonamido)benzo[d]isoxazol-6-yl)methyl)-1H-pyrazol-4-yl)methyl) carbamate], the concentration for a half-maximal effect (EC50) – broadly, the concentration needed to bring the measured effect to its halfway point – in the test with ZR-75-1 cells was < 0.1 µM. Moreover, in test [1], the “Average Kat6A % inhibition @ 1 μM” value came to 97% and the “Average Kat6A % inhibition @ 10 μM” value stood at 99%. Moreover, the IC50 (as a rule, the midpoint of a concentration-inhibition curve) at GST-Tagged Kat6B stood at 0.571 µM. The IC50 on FLAG-Tagged Kat6A is 0.022 µM.
Regarding `C=C(F)C(=O)NCc1cnn(Cc2cc(OC)c3c(NS(=O)(=O)c4cc(CC)ccc4OC)noc3c2)c1` [Syn. Ex. 14, N-((1-((3-((5-ethyl-2-methoxyphenyl)sulfonamido)-4-methoxybenzo[d]isoxazol-6-yl)methyl)-1H-pyrazol-4-yl)methyl)-2-fluoroacrylamide], in the test with ZR-75-1 cells (Homo sapiens), the half-maximal effective concentration (EC50) was < 0.1 µM. Moreover, in test [1], the inhibition – broadly, the drop in the measured response relative to a control, in per cent – at 1 µM was found to be 100%. For the same molecule, the inhibition at 10 µM in test [1] was determined as 100%. The 50% inhibitory concentration (IC50) at GST-Tagged Kat6B was 0.878 µM; on FLAG-Tagged Kat6A it was 0.002 µM.
In the case of `CC#CC(=O)NCc1cnn(Cc2cc(OC)c3c(NS(=O)(=O)c4cc(CC)ccc4OC)noc3c2)c1` [Syn. Ex. 15, N-((1-((3-((5-ethyl-2-methoxyphenyl)sulfonamido)-4-methoxybenzo[d]isoxazol-6-yl)methyl)-1H-pyrazol-4-yl)methyl)but-2-ynamide], in the test on ZR-75-1 cells (Homo sapiens), the EC50 was 0.1 to 1 µM. Besides, in test [1], the inhibition at 1 µM was determined as 100% and the inhibition at 10 µM was 100%. On GST-Tagged Kat6B, the concentration for half-maximal inhibition (IC50) is 1.02 µM. In addition, the IC50 on FLAG-Tagged Kat6A is 0.005 µM.
In the case of `COC(=O)NCc1cnn(Cc2cc(OC)c3c(NS(=O)(=O)c4cc5c(cc4OC)CCC5)noc3c2)c1` [Syn. Ex. 25, methyl ((1-((4-methoxy-3-((6-methoxy-2,3-dihydro-1H-indene)-5-sulfonamido)benzo[d]isoxazol-6-yl)methyl)-1H-pyrazol-4-yl)methyl)carbamate], the half-maximal effective concentration (EC50) in the test with ZR-75-1 cells was < 0.1 µM. In addition, the “Average Kat6A % inhibition @ 1 μM” value in test [1] was 100%. In test [1], the “Average Kat6A % inhibition @ 10 μM” value amounted to 100%. The half-inhibitory concentration (IC50) is 0.722 µM on GST-Tagged Kat6B and 0.002 µM on FLAG-Tagged Kat6A.
As to `COC(=O)NCc1cnn(Cc2cc(OC(F)F)c3c(NS(=O)(=O)c4c(OC)cccc4OC)noc3c2)c1` [Syn. Ex. 50, methyl ((1-((4-(difluoromethoxy)-3-((2,6-dimethoxyphenyl)sulfonamido)benzo[d]isoxazol-6-yl)methyl)-1H-pyrazol-4-yl)methyl)carbamate], in the test with ZR-75-1 cells (Homo sapiens), the EC50 lay in the range of 0.1 to 1 µM. Moreover, the inhibition at 1 µM in test [1] came to 98%. In test [1], the inhibition at 10 µM turned out to be 96%. Moreover, the IC50 on GST-Tagged Kat6B turned out to be 2.4 µM; on FLAG-Tagged Kat6A, 0.034 µM.
The corresponding values for `C=C(F)C(=O)NCc1cnn(Cc2cc(OC(F)F)c3c(NS(=O)(=O)c4cc(CC)ccc4OC)noc3c2)c1` [Syn. Ex. 52, N-((1-((4-(difluoromethoxy)-3-((5-ethyl-2-methoxyphenyl)sulfonamido)benzo[d]isoxazol-6-yl)methyl)-1H-pyrazol-4-yl)methyl)-2-fluoroacrylamide] are 0.1 to 1 µM, 100%, 100%, 3.67 µM and 0.012 µM.
On to `CCc1ccc(OC)c(S(=O)(=O)Nc2noc3cc(Oc4ncc(CNC(=O)OC)s4)cc(OC)c23)c1` [Syn. Ex. 101, methyl ((2-((3-((5-ethyl-2-methoxyphenyl)sulfonamido)-4-methoxybenzo[d]isoxazol-6-yl)oxy)thiazol-5-yl)methyl)carbamate], for which, in test [1], the inhibition at 1 µM is 100% and the inhibition at 10 µM came out at 100%. On GST-Tagged Kat6B, the IC50 turned out to be 2.49 µM. Moreover, at FLAG-Tagged Kat6A, the IC50 came out at 0.004 µM.
As for `C=C(F)C(=O)NCc1cnc(Oc2cc(OC)c3c(NS(=O)(=O)c4cc(CC)ccc4OC)noc3c2)s1` [Syn. Ex. 102, N-((2-((3-((5-ethyl-2-methoxyphenyl)sulfonamido)-4-methoxybenzo[d]isoxazol-6-yl)oxy)thiazol-5-yl)methyl)-2-fluoroacrylamide], in test [1], the inhibition at 1 µM was 99% and the inhibition at 10 µM amounted to 100%. For the same molecule, the 50% inhibitory concentration (IC50) at GST-Tagged Kat6B was 2.53 µM. Moreover, the concentration for half-maximal inhibition (IC50) at FLAG-Tagged Kat6A amounted to 0.002 µM.
The corresponding values for `C=C(F)C(=O)Nc1ccc(Oc2cc(OC)c3c(NS(=O)(=O)c4cc(CC)ccc4OC)noc3c2)nc1` [Syn. Ex. 107, N-(6-((3-((5-ethyl-2-methoxyphenyl)sulfonamido)-4-methoxybenzo[d]isoxazol-6-yl)oxy)pyridin-3-yl)-2-fluoroacrylamide] are 100%, 100%, 1.63 µM and 0.002 µM.
Regarding `COc1cccc(OC)c1S(=O)(=O)Nc1noc2cc(Oc3nccs3)cc(OCF)c12` [reference compound], the results for the IC50 on GST-Tagged Kat6B and on FLAG-Tagged Kat6A were 0.0255 µM and 0.001 µM, respectively.
